Reference: PMC8467575, “Bacterial-Specific Aggregation and Killing of Immunomodulatory Host Defense Peptides” (Pharmaceuticals, 2021)
Values after ≈ are worked out from the molar mass of the structure shown. Where two headings read alike, the source gives them in different places. Where a SMILES comes first, the peptide text is derived from it. Bridges are numbered along the chain shown (N, C = ends).

Tests used:
[1] = system: E. coli; assay: Bacterial uptake of TAMRA-labeled peptides; assay type: cell-based, Escherichia coli; settings: 5 µM, up to 5 h, log phase culture, fluorescence of free peptide in supernatant, triplicate
Protocol: (§1) TAMRA-conjugated peptides were used for cellular uptake studies. Liquid cultures of E. coli and Bacillus subtilis at log phase (OD600 ≈ 0.3–0.4) were incubated with TAMRA-labeled peptides (5 µM), and the percentage uptake of peptides was determined in triplicate for 5 h by measuring the fluorescence of free peptide in the supernatant of bacteria at […] wavelengths of 579 and 546 nm. (1) % Uptake=100−Fluorescence of supernatant/Initial fluorescence of sample×100%

[2] = system: Caco-2 human colorectal adenocarcinoma cells; assay: Cellular uptake of TAMRA-labeled peptides (flow cytometry, fluorescence microscopy); assay type: cell-based; settings: 5 h
Protocol: Caco-2 human colorectal adenocarcinoma cells were cultured to growth phase (~70% confluency) in EMEM containing 20% FBS and were treated with 5 µM of TAMRA-labeled peptides for 5 h. The uptake of fluorescently labeled peptide in Caco-2 human colorectal adenocarcinoma cells was measured by flow cytometry using BD FACS Calibur (BD Biosciences (Franklin Lakes, NJ, USA)) and by fluorescence microscopy.

[3] = system: Caco-2 cells; assay: Cytotoxicity assay (MTS); assay type: cell-based, human; settings: 100 µM peptide, 24 h, triplicate
Protocol: (§2) DF-1 chicken embryonic fibroblasts were cultured in DMEM containing 8% FBS and 2% CS. Caco-2 cells were cultured in EMEM containing 20% FBS. Cells in growth phase (~70% confluency) were incubated with a 100 µM concentration of each peptide for 24 h. Cell viability was determined in triplicate by MTS assay using the CellTiter 96® AQueous Cell Proliferation Assay, as per the manufacturer’s protocol.

[4] = system: DF-1 chicken embryonic fibroblasts; assay: Cytotoxicity assay (MTS); assay type: cell-based; settings: 100 µM peptide, 24 h, triplicate
Protocol: as §2

[5] = system: E. coli (ATCC 25922GFP) in Caco-2 cells; assay: Bacterial infection of Caco-2 cells; assay type: cell-based, Escherichia coli; settings: 400,000 CFU/mL GFP-expressing E. coli, 5 µM peptide, 5 h, fluorescence microscopy
Protocol: Caco-2 cells grown in six-well plates were also infected with E. coli (ATCC 25922GFP) at a CFU of 400,000 cells/mL. Cells were then incubated with 5 µM of TAMRA-labeled peptides for 5 h and were observed under fluorescence microscope for the presence of fluorescent bacteria.

[6] = system: Bacillus subtilis; assay: Bacterial uptake of TAMRA-labeled peptides; assay type: cell-based; settings: 5 µM, up to 5 h, log phase culture, fluorescence of free peptide in supernatant, triplicate
Protocol: as §1

[7] = system: Listeria monocytogenes ATCC 19115; assay type: cell-based
Protocol: (§3) E. coli, S. aureus, and S. enterica were cultured in nutrient broth at 37 °C. Listeria was cultured in brain heart infusion broth at 37 °C. Bacteria at early log phase (OD600 ≈ 0.1) were incubated with the peptides at different concentrations (100–3.12 µM) for 4–6 h. After the incubation period, the bacterial culture medium was diluted at different ratios (1 in 2000–2,000,000) in sterile PBS and was spread on blood agar (BA) plates. BA plates were incubated at 37 °C for 24 h, and the number of colonies formed was counted to determine cell viability.

[8] = system: Escherichia coli ATCC 25922; assay: microbe, parasite or virus in culture; assay type: cell-based
Protocol: as §3

[9] = system: Salmonella enterica ATCC 13076; assay: microbe, parasite or virus in culture; assay type: cell-based; settings: for MIC: read-out: MIC S. enterica
Protocol: as §3

[10] = system: Staphylococcus aureus ATCC 25923; assay: microbe, parasite or virus in culture; assay type: cell-based
Protocol: as §3

[11] = system: chicken red blood cell suspension; assay: Hemolysis assay; assay type: cell-based; settings: eukaryotic cells (cytotoxicity and hemolysis at 100 µM) versus antibacterial IC50
Protocol: A chicken red blood cell suspension was purchased from Cedarlane (Burlington, CA). RBCs were incubated with a 100 µM concentration of each peptide at 37 °C for 4 h. Triton-X was used as a positive control to achieve total hemolysis of RBCs. Percentage hemolysis was determined in triplicate by centrifuging down the RBC suspension and by measuring the absorbance of the supernatant at 540 nm. (2) % Hemolysis=Absorbance of sample @540nm /Absorbance of positive control @540nm×100%.

Q: For `N=C(N)NCCC[C@@H]1NC(=O)[C@H](CCCNC(=N)N)NC(=O)[C@H](CCCNC(=N)N)NC(=O)[C@@H](N)CSSC[C@@H](C(N)=O)NC(=O)[C@H](Cc2c[nH]cn2)NC(=O)[C@@H]2CCCN2C(=O)[C@H](CO)NC(=O)CNC1=O` [mCA4-4] (H-CRRRGSPHC-NH2; disulfide 1-9), which “uptake of TAMRA-labeled peptide in E. coli” value [1] is on record?
A: The value was “taken up well”.

Q: What about the “% fluorescent cells (cellular uptake)” value ([2]; Caco-2, 5 µM TAMRA-labeled peptide, flow cytometry) of the same compound?
A: Its value is 19%.

Q: And the “uptake of fluorescent peptide seen by fluorescence microscopy” value ([2]; Caco-2, TAMRA-labeled peptide)?
A: The value was “weak fluorescence”.

Q: And the “viability of Caco-2 intestinal epithelial cells” value [3]?
A: Its value is “did not compromise the viability”.

Q: What about the “viability of DF-1 fibroblasts” value [4] of the same compound?
A: Its value is “did not compromise the viability”.

Q: And the “reduction of bacterial infection of Caco-2 cells” value [5]?
A: Its value is “unable to reduce the bacterial burden”.

Q: And the “uptake of TAMRA-labeled peptide in B. subtilis” value [6]?
A: Its value is “taken up well”.

Q: How did the IC50 [7] turn out when `CC[C@H](C)[C@@H]1NC(=O)[C@H](CCCNC(=N)N)NC(=O)[C@H](Cc2ccccc2)NC(=O)[C@H](CCCCN)NC(=O)[C@H](Cc2ccccc2)NC(=O)[C@H](CCCNC(=N)N)NC(=O)[C@@H](N)CSSC[C@@H](C(N)=O)NC(=O)[C@H]([C@@H](C)CC)NC(=O)[C@H](C(C)C)NC1=O` [mCA4-5] (H-CRFKFRIVIC-NH2; disulfide 1-10) was run?
A: Its IC50 is 5.2 µM.

Q: What about the “MIC L. monocytogenes” value [7] of the same compound?
A: The value was 10 µM (≈ 12.8 µg/mL).

Q: What about the IC50 ([8]; ATCC 25922) of the same compound?
A: Its IC50 is 15.1 µM.

Q: What about the “MIC E. coli” value ([8]; ATCC 25922) of the same compound?
A: Its value is 40 µM (≈ 51.3 µg/mL).

Q: What about the IC50 ([9]; ATCC 13076) of the same compound?
A: The IC50 was 10.2 µM.

Q: What about the MIC ([9]; ATCC 13076) of the same compound?
A: The MIC was 30 µM (≈ 38.5 µg/mL).

Q: What about the IC50 ([10]; ATCC 25923) of the same compound?
A: The IC50 was 4 µM.

Q: What about the “MIC S. aureus” value ([10]; ATCC 25923) of the same compound?
A: Its value is 15 µM (≈ 19.2 µg/mL).

Q: What about the “nontoxic and hemocompatible concentration as fold of the IC50 of the peptide” value [11] of the same compound?
A: Its value is greater than 6 fold.

Q: What about the “reduction of bacterial infection of Caco-2 cells” value [5] of the same compound?
A: The value was “actively contained and reduced bacterial infections”.

Q: What does the source list for `CC1(C)S[C@@H]2[C@H](NC(=O)[C@H](N)c3ccccc3)C(=O)N2[C@H]1C(=O)O` [Ampicillin, reference compound]?
A: IC50 ([8]; Escherichia coli, ATCC25922, early log phase (OD600 ≈ 0.1), nutrient broth 37 °C, peptide 100–3.12 µM for 4–6 h, colony count on blood agar after 24 h, read-out: IC50 E. coli): 15.2 µM; IC50 ([9]; Salmonella enterica, ATCC13076, early log phase (OD600 ≈ 0.1), nutrient broth 37 °C, peptide 100–3.12 µM for 4–6 h, colony count on blood agar after 24 h, read-out: IC50 S. enterica): 7 µM; MIC ([9]; Salmonella enterica, ATCC13076, early log phase, nutrient broth 37 °C, 4–6 h, colony count on blood agar): 13.5 µM (≈ 4.72 µg/mL); IC50 ([10]; Staphylococcus aureus, ATCC25923, early log phase (OD600 ≈ 0.1), nutrient broth 37 °C, peptide 100–3.12 µM for 4–6 h, colony count on blood agar after 24 h, read-out: IC50 S. aureus): 3.6 µM
